These results are taken from ChEMBL document CHEMBL5154800, “Identification of N, C-capped di- and tripeptides as selective immunoproteasome inhibitors” (Eur J Med Chem, 2022).

The test system of test [1] is THP-1. The experiment in a line: Antiinflammatory activity against LPS-stimulated human THP-1 cells assessed inhibition of TNF-alpha release at 40 uM measured by ELISA. Format: functional, cell-based.
The test system of another test is HCT-116. Briefly: Antiproliferative activity against human HCT-116 cells assessed as growth inhibition at 0.2 uM measured after 72 hrs by MTT assay. Format: functional. As to conditions: read-out: GI.
Test [2] is described as follows: Selectivity ratio of IC50 for inhibition of 20S proteasome beta 5c subunit (unknown origin) to IC50 for inhibition of 20S proteasome subunit beta-5i.
Another test deals with MCF7. Briefly: Antiproliferative activity against human MCF7 cells assessed as growth inhibition at 0.2 uM measured after 72 hrs by MTT assay. The class given is functional. To be noted: read-out: GI.
A further test concerns DOHH-2. Briefly: Antiproliferative activity against human DOHH-2 cells assessed as growth inhibition at 0.2 uM measured after 72 hrs by MTT assay. The class given is functional. To be noted: read-out: GI.
Test [3] has as its system THP-1. Briefly: Antiinflammatory activity against LPS-stimulated human THP-1 cells assessed inhibition of IL-6 release at 40 uM measured by ELISA. The class given is functional, cell-based.
The next test has as its system HT-29. Briefly: Antiproliferative activity against human HT-29 cells assessed as growth inhibition at 0.2 uM measured after 72 hrs by MTT assay. The class given is functional. To be noted: read-out: GI.
A further test relates to Pfeiffer. The experiment in a line: Antiproliferative activity against human Pfeiffer cells assessed as growth inhibition at 0.2 uM measured after 72 hrs by MTT assay. As to conditions: read-out: GI. The class given is functional.
Test [4] has as its target T1, Proteasome subunit beta type-8 (Homo sapiens, UniProt P28062).
T1 sequence (P28062 whole entry): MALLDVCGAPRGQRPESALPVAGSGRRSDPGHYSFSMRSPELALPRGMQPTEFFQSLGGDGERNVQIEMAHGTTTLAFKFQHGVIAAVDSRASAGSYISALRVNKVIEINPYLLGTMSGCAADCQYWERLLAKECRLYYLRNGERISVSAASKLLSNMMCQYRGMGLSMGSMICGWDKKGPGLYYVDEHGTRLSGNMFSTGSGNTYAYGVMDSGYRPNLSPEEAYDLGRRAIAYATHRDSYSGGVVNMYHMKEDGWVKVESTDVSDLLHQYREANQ
Briefly: Inhibition of 20S proteasome subunit beta-5i (unknown origin) using Ac-ANW-AMC as substrate and measured after 30 mins.

Test [5] concerns the target T2, Proteasome Macropain subunit MB1 (Homo sapiens, UniProt P28074).
T2 sequence (P28074 whole entry): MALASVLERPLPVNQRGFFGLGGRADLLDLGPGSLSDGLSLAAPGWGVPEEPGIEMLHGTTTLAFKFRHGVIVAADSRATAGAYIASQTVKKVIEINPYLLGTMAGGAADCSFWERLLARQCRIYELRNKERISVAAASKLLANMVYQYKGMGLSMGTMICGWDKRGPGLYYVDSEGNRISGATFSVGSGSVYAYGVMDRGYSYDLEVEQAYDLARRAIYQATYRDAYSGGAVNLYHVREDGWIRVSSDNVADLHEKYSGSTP
Briefly: Inhibition of 20S proteasome subunit beta-5c (unknown origin) using Ac-WLA-AMC as substrate and measured after 30 mins.

pIC50: −log10 of the molar value. Calls of active or inactive are those of the source. No cut-off for these calls is given here.

Regarding `CC(C)(C)NC(=O)CC[C@H](NC(=O)CCNC(=O)/C(C#N)=C/c1ccc(Cl)cc1)C(=O)N[C@@H](Cc1ccccc1)C(=O)NCc1cccc2ccccc12`, the outcome in the test on THP-1 [1] and with THP-1 [3] was Active. In addition, the inhibition of growth at 0.2 µM with HCT-116 is 26%; with MCF7, less than 20%; in the test on DOHH-2, 34%; in the test with HT-29, less than 20%; with Pfeiffer, 32%. The Ratio IC50 in [2] amounted to 124.
As for `Cc1ccc(CNC(=O)[C@H](Cc2ccccc2)NC(=O)[C@H](CC(N)=O)NC(=O)[C@H](CNC(=O)CCl)NC(=O)CN2CCOCC2)cc1`, the outcome in the test with THP-1 [1] and in the test on THP-1 [3] was Active. Moreover, the pIC50 in [4] is 5.56; in test [5], less than 5.00. For the same molecule, in test [2], the Ratio IC50 was more than 4.
In the case of `CCC(=O)NCCC(=O)N[C@@H](CCC(=O)NC(C)(C)C)C(=O)N[C@@H](Cc1ccccc1)C(=O)NCc1cccc2ccccc12`, the outcome in the test with THP-1 [1] and with THP-1 [3] was Active. Besides, the inhibition of growth at 0.2 µM in the test with HCT-116, in the test with MCF7, with DOHH-2, in the test on HT-29 and with Pfeiffer was less than 20% in each case. In test [2], the Ratio IC50 is 274.
`Cc1ccc(CNC(=O)CNC(=O)[C@H](CCC(=O)NC(C)(C)C)NC(=O)CCNC(=O)CCl)cc1`: the figures for the pIC50 in test [4] and in test [5] were 6.20 and 5.42, respectively. Further, the Ratio IC50 in [2] was 6.
Turning to `Cc1ccc(CNC(=O)[C@H](Cc2c[nH]c3ccccc23)NC(=O)[C@H](CCC(=O)NC(C)(C)C)NC(=O)CCNC(=O)CCl)cc1`, the pIC50 was 8.13 in test [4] and 7.86 in test [5]. For the same molecule, the inhibition of growth at 0.2 µM in the test on HCT-116 was 29%; with MCF7, less than 20%; in the test on DOHH-2 it was less than 20%; with HT-29 it was less than 20%; in the test with Pfeiffer, 28%. Moreover, the Ratio IC50 in test [2] came out at 2.
In the case of `COC[C@H](NC(=O)[C@H](CCC(=O)NC(C)(C)C)NC(=O)CCNC(=O)CCl)C(=O)NCc1ccc(C)cc1`, the pIC50 in test [4] is 7.36; in [5], 7.10. Besides, the Ratio IC50 in test [2] amounted to 2.
Taken in the same sequence, the figures for `COC(=O)C1CCN(C(=O)C[C@H](NC(=O)[C@H](CNC(=O)CCl)NC(=O)CN2CCOCC2)C(=O)N[C@@H](Cc2ccccc2)C(=O)NCc2ccc(C)cc2)CC1` were 6.19, less than 6.19 and more than 16.
Regarding `CC(C)(C)NC(=O)CC[C@H](NC(=O)CCNC(=O)/C(C#N)=C/c1ccc(Cl)cc1)C(=O)N[C@@H](Cc1ccc2ccccc2c1)C(=O)NCc1cccc2ccccc12`, the outcome in the test on THP-1 [1] and with THP-1 [3] was Active. Also, the inhibition of growth at 0.2 µM in the test with HCT-116 was less than 20%; with MCF7 it was less than 20%; with DOHH-2, less than 20%; in the test with HT-29 it was less than 20%; with Pfeiffer, 28%. Moreover, the Ratio IC50 in test [2] was 222.
For the molecule `CC[C@H](NC(=O)[C@H](CCC(=O)NC(C)(C)C)NC(=O)CCNC(=O)CCl)C(=O)NCc1ccc(C)cc1`, the pIC50 in test [4] was 7.21; in test [5], 6.69. Besides, in test [2], the Ratio IC50 was 3.
`COc1ccc(C[C@H](NC(=O)[C@H](CCC(=O)NC(C)(C)C)NC(=O)CCNC(=O)CCl)C(=O)NCc2ccc(C)cc2)cc1`: the outcome with THP-1 [1] and with THP-1 [3] was Active. Further, the inhibition of growth at 0.2 µM was 29% with HCT-116; less than 20% in the test on MCF7; less than 20% in the test on DOHH-2; less than 20% in the test on HT-29; 28% with Pfeiffer. The Ratio IC50 in test [2] was 36.
